Measured values taken from patent US20240270762A1, “PENICILLIN-BINDING PROTEIN INHIBITORS” (priority 2021, published 2024).

Tests used:
[1] = system: B. humptydooensis ATCC BAA-2767; assay: microbe, parasite or virus in culture; type: cell-based; settings: Burkholderia humptydooensis, ATCCBAA2767, read-out: Minimum inhibitory concentration (MIC), B. humptydooensis ATCC BAA-2767
A. baumannii PBP2 = A. baumannii PBP2 (Acinetobacter baumannii, UniProt D0C8Z9); assay: Bocillin-FL competition binding via gel filtration, A. baumannii PBP2
Protocol: (§1) Affinity to A. baumannii PBP1a and PBP2 was assessed a competitive equilibrium binding assay using Bocillin-FL as the reporter molecule. Enzyme was pre-incubated with increasing concentrations of inhibitors, prior to addition of Bocillin and further incubation for 15 minutes. PBP bound with Bocillin-FL was separated by gel filtration using 96-well Zeba Spin size exclusion plates, and the fluorescence measured. The inhibitor affinity (reported as the EC50) was determined by plotting the fraction of PBP bound with Bocillin-FL at each inhibitor concentration against the inhibitor concentration, and fitting the data to the following equation:
(§2) [formula] • where y is the fraction bound at a given inhibitor concentration, ymin is the fraction bound when the enzyme is completely inactivated, ymax is the maximum (uninhibited) fraction bound, n is the Hill coefficient, and x is the inhibitor concentration.

[2] = system: B. thailandensis ATCC 700388; assay: microbe, parasite or virus in culture; type: cell-based; settings: Burkholderia thailandensis, ATCC700388, read-out: Minimum inhibitory concentration (MIC), B. thailandensis ATCC 700388
A. baumannii PBP1a = target: T1, A. baumannii PBP1a (Acinetobacter baumannii, UniProt A0ABX6CK30); assay: Bocillin-FL competition binding via gel filtration, A. baumannii PBP1a; settings: competition binding assay using Bocillin-FL via gel filtration; read-out: A. baumannii PBP1a Potency
T1 sequence (A0ABX6CK30 1-851): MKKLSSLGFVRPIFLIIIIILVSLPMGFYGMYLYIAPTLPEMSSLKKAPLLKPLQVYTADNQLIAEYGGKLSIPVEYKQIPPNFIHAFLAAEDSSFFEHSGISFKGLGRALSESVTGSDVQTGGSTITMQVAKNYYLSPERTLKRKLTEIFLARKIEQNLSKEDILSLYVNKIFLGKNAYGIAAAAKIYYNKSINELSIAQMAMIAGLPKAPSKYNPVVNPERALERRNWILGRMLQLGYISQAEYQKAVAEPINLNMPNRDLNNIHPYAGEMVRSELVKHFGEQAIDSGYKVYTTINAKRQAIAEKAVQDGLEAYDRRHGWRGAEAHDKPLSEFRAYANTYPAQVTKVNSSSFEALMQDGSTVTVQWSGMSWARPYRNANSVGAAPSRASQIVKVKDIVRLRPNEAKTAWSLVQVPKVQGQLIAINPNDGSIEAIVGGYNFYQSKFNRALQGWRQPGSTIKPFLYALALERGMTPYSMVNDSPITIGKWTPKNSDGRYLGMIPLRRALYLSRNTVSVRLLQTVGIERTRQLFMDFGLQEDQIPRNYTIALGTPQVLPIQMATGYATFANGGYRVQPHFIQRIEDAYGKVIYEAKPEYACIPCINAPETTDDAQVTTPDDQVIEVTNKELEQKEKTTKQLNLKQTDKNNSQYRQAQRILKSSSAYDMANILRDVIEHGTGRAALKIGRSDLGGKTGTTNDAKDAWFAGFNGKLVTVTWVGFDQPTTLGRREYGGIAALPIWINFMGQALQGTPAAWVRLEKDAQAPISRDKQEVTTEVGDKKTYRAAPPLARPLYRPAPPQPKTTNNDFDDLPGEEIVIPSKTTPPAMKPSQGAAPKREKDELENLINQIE
Protocol: as §1, §2

Chain of A. baumannii PBP2 (D0C8Z9 whole entry): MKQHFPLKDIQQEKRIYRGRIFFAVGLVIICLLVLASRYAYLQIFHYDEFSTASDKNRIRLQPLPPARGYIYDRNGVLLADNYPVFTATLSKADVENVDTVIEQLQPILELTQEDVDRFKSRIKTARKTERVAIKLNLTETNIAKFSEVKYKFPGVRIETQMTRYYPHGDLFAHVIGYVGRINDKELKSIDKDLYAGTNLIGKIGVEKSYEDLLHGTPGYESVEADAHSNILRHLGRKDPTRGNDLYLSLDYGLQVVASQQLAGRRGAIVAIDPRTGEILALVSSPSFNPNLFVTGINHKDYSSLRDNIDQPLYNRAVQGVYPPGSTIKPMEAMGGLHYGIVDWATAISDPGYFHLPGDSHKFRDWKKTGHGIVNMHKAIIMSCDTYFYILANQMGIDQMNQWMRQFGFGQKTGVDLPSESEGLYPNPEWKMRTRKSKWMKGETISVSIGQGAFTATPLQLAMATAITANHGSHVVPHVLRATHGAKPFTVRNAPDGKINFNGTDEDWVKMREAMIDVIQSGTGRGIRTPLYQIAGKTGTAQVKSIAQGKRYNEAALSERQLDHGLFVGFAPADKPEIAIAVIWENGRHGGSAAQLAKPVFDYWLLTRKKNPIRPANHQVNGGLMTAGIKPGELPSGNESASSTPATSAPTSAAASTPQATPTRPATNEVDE

Row | Compound | MIC [1] | EC50 (A. baumannii PBP2) | MIC [2] | EC50 (A. baumannii PBP1a)
1 | O=C(O)c1c(F)ccc2c1OB(O)[C@@H](NC(=O)C(NC(=O)N1CCN(C3CCN(Cc4ccc(F)c(O)c4)CC3)C1=O)c1cc(F)c(O)c(O)c1Cl)C2 (single isomer, unassigned) [Example 606] | < 1 µg/mL | 10 to 50 µM | < 1 µg/mL | < 10 µM
2 | NCc1cccc(CN2CCC(N3CCN(C(=O)N[C@@H](C(=O)N[C@H]4Cc5ccc(F)c(C(=O)O)c5OB4O)c4cc(F)c(O)c(O)c4Cl)C3=O)CC2)c1 (single isomer, unassigned) [Example 613] | < 1 µg/mL | 10 to 50 µM | < 1 µg/mL | 10 to 50 µM
3 | O=C(O)c1c(F)ccc2c1OB(O)[C@@H](NC(=O)[C@H](NC(=O)N1CCN(C3CCN(Cc4cc(O)ccc4F)CC3)C1=O)c1cc(F)c(O)c(O)c1Cl)C2 (single isomer, unassigned) [Example 608] | < 1 µg/mL | 10 to 50 µM | < 1 µg/mL | < 10 µM
4 | O=C(O)c1c(F)ccc2c1OB(O)[C@@H](NC(=O)C(NC(=O)N1CCN(C3CCN(S(=O)(=O)c4cc(O)cc(O)c4)CC3)C1=O)c1cc(F)c(O)c(O)c1Cl)C2 (stereo partly drawn) [Example 600, (3R)-3-(2-(2-chloro-5-fluoro-3,4-dihydroxyphenyl)-2-(3-(1-((3,5-dihydroxyphenyl)sulfonyl)piperidin-4-yl)-2-oxoimidazolidine-1-carboxamido)acetamido)-7-fluoro-2-hydroxy-3,4-dihydro-2H-benzo[e][1,2]oxaborinine-8-carboxylic acid] | > 128 µg/mL | < 10 µM | > 128 µg/mL | < 10 µM
5 | O=C(O)c1c(F)ccc2c1OB(O)[C@@H](NC(=O)C(NC(=O)N1CCN(C3CCN(Cc4ccc(O)cc4F)CC3)C1=O)c1cc(F)c(O)c(O)c1Cl)C2 (single isomer, unassigned) [Example 611] | < 1 µg/mL | 10 to 50 µM | < 1 µg/mL | < 10 µM
6 | O=C(O)c1c(F)ccc2c1OB(O)[C@@H](NC(=O)[C@H](NC(=O)N1CCN(C3CCN(Cc4cc(O)cc(F)c4)CC3)C1=O)c1cc(F)c(O)c(O)c1Cl)C2 (single isomer, unassigned) [Example 607] | < 1 µg/mL | 10 to 50 µM | < 1 µg/mL | < 10 µM
